Data: patent publication US5679640A, “Immunosuppressant peptides” (priority 1995, dated 1997)
Non-standard residues stand in square brackets, D forms with d. Residues, ends and D or L forms follow the SMILES beside them. *: point of attachment. Acetyl(1-adamantyl) = O=C(CC12CC3CC(CC(C3)C1)C2)*

Legend:
DR4w4 = biological target: T1, DR4w4 (Homo sapiens, UniProt P01903+P01911, A100K/A169T/F76Y/I96L/K127E/L162R/M171V/N62H/P40V/Q125Y/R42H/S133A/S149N/S66Y/V115G/V209L/W38E); experiment: DR-peptide binding assay, DR4w4; details: for MHC Binding Assay DR4w4: Table 3, binding affinity relative to HA 307-319 = 1
T1 construct: EBV-transformed homozygous cell lines were used as a source of DR molecules; endogenous in cells; host or cells: Preiss or Beh (EBV-transformed human B cell lines, DR4 Dw4 homozygous); lysate purified on a monoclonal antibody LB3.1 column

HLA-DR1 = biological target: T2, HLA-DR1 (Homo sapiens, UniProt P01903+P01911, A100R/D57E/F55L/F60I/F76Y/I96L/L162R/M171V/P40L/Q125E/R42F/V115G/Y59C); experiment: DR-peptide binding assay, DR1; details: for MHC Binding Assay DR1: Table 3, binding affinity relative to HA 307-319 = 1
T2 construct: EBV-transformed homozygous cell lines were used as a source of DR molecules; endogenous in cells; host or cells: LG-2 (EBV-transformed human B cell line, DR1 homozygous); lysate purified on a monoclonal antibody LB3.1 column

in vitro = details: human, serum
DR4w14 = experiment: DR-peptide binding assay, DR4w14; design: species or system human; details: for MHC Binding Assay DR4w14: Table 3, […]
Experimental: DR-peptide binding assay. Purified DR molecules (10-1,000 nM) were incubated with 10 nM ^125 I-radiolabeled peptide for 48 hours in the presence of added protease inhibitors. […] The final concentrations of protease inhibitors were: 1 mM PMSF, 1.3 mM 1,10-phenanthroline, 73 μM pepstatin A, 8 mM EDTA, 6 mM N-ethyl maleimide, and 200 μM Nα-p-tosyl-L-lysine chloromethyl ketone (TLCK). The final detergent concentration in the incubation mixture was 0.05% NP-40. Several of the peptides screened were hydrophobic and required DMSO to maintain solubility and reduce peptide adsorption to surfaces. In these instances peptide stock solutions were prepared in neat DMSO, and the final DMSO concentration in the incubation mixture was adjusted to 5%. […] The DR-peptide complexes were separated from free peptide by gel filtration on a Sephadex G50 (Pharmacia Fine Chemicals, Piscataway, N.J.) column (23×1.3 cm), as previously described. […] The columns were eluted using PBS (0.5% NP-40, 0.1% NAN3) collected in 1 ml fractions, which were then assayed for radioactivity. The fraction of peptide bound to DR (α) relative to the total amount of offered peptide was determined as the ratio of peptide in the void volume to the total peptide recovered. The α was corrected by subtracting the negative control (^125 I-peptide incubated for two days at room temperature in the presence of protease inhibitors and 120 μg/ml of unlabeled peptide, but in the absence of any DR).
To obtain a figure that positively correlated with the binding affinity, the data were expressed as relative binding values.

[1] = Table 6, binding affinity relative to HA 307-319 = 1

Structure (SMILES) | DR4w4 (DR4w4; [1]) | DR1 (HLA-DR1; [1]) | half-life at 50 µg/mL (in vitro) | DR4w14 (DR4w14; Table 6, […]) | MHC Binding Assay DR4w4 (DR4w4) | MHC Binding Assay DR1 (HLA-DR1) | half-life (in vitro) | MHC Binding Assay DR4w14 (DR4w14)
C[C@H](NC(=O)CC12CC3CC(CC(C3)C1)C2)C(=O)N[C@@H](C)C(=O)N[C@@H](C)C(=O)N[C@@H](CCCCN)C(=O)N[C@H](C(=O)N[C@@H](C)C(=O)N[C@@H](C)C(=O)N[C@@H](C)C(=O)N[C@@H](Cc1ccccc1)C(=O)N[C@H](C)C(=O)O)[C@@H](C)O ({Acetyl(1-adamantyl)}-AAAKTAAAF[dA]-OH; C-terminus assumed) | ++ (affinity greater than 1.0) | + (0.51 to 1.0) | 7.2 h | ++ (affinity greater than 1.0) |  |  |  | 
CC(=O)N[C@H](Cc1ccc(O)cc1)C(=O)N[C@@H](C)C(=O)N[C@@H](C)C(=O)N[C@@H](Cc1ccccc1)C(=O)N[C@@H](C)C(=O)N[C@@H](C)C(=O)N[C@@H](C)C(=O)N[C@@H](CCCCN)C(=O)N[C@H](C(=O)N[C@@H](C)C(=O)N[C@@H](C)C(=O)N[C@@H](C)C(=O)N[C@@H](C)C(=O)N[C@H](C)C(=O)O)[C@@H](C)O (Ac-[dY]AAFAAAKTAAAA[dA]-OH) |  |  |  |  | ++ (affinity greater than 1.0) | ± (0.1 to 0.50) | 6.77 h | ++ (affinity greater than 1.0)
C[C@H](NC(=O)[C@H](N)Cc1ccc(O)cc1)C(=O)N[C@@H](C)C(=O)N[C@@H](Cc1ccccc1)C(=O)N[C@@H](C)C(=O)N[C@@H](C)C(=O)N[C@@H](C)C(=O)N[C@@H](CCCCN)C(=O)N[C@H](C(=O)N[C@@H](C)C(=O)N[C@@H](C)C(=O)N[C@@H](C)C(=O)N[C@@H](Cc1ccccc1)C(=O)N[C@H](C)C(N)=O)[C@@H](C)O (H-[dY]AAFAAAKTAAAF[dA]-NH2) |  |  |  |  | ++ (affinity greater than 1.0) | ++ (affinity greater than 1.0) | 5 h | ++ (affinity greater than 1.0)
C[C@H](NC(=O)[C@H](N)Cc1ccc(O)cc1)C(=O)N[C@@H](C)C(=O)N[C@@H](Cc1ccccc1)C(=O)N[C@@H](C)C(=O)N[C@@H](C)C(=O)N[C@@H](C)C(=O)N[C@@H](CCCCN)C(=O)N[C@H](C(=O)N[C@@H](C)C(=O)N[C@@H](C)C(=O)N[C@@H](C)C(=O)N[C@@H](C)C(=O)N[C@H](C)C(=O)O)[C@@H](C)O (H-[dY]AAFAAAKTAAAA[dA]-OH) |  |  |  |  | ++ (affinity greater than 1.0) | ++ (affinity greater than 1.0) | 8.85 h | ++ (affinity greater than 1.0)
